From a melting point compilation (Tetko et al.; mined from patent text by program, amines drawn as free bases though some values may be those of a salt)

Row | SMILES | melting point [°C]
1 | O=C(O)Cc1noc2cc(F)ccc12 | 132 to 133
2 | CCOC(=O)c1c(C(F)(F)F)n(C)cc(-c2cc(OC(C)C)c(Cl)cc2F)c1=O | 170 to 172
3 | OCC=C[C@@H]1O[C@H]1C#CC#CC#Cc1ccccc1 (relative stereo) | 65 to 66
4 | O=C(Nc1cccc(S(=O)(=O)c2ccccn2)c1)C(O)(C(F)(F)F)C(F)(F)F | 264 to 267
5 | CC(C)(C)NS(=O)(=O)c1cccc2c1SC(C)(C)C2 | 103 to 105
6 | Cc1noc(C(=O)NC(C)C)c1C(=O)O | 86 to 92
7 | COc1ccc2c(c1)Sc1c(cc(OC)c(OC)c1Br)N2C | 135 to 137
8 | CC(C)CCOc1c(Cl)c(Sc2ccccc2N)c(OCCC(C)C)c2c1C(=N)NC2=N | 175 to 176
9 | CN(C)c1nnc(-c2ccc3occ(-c4cccc(OC(F)(F)F)c4)c3c2)o1 | 105 to 106
10 | CC12CC=C3C(CCC4(CCSc5ncccn5)CC(O)CCC34C)C1CCC2O (configuration not stated) | 156
11 | O=C1N=C(N2CCCCCCC2)SC1=Cc1cccc(-c2ccc(O)c(C34CC5CC(CC(C5)C3)C4)c2)c1 | 284 to 286
12 | Cc1cc(C(C)(C)C#N)cc(C(C)(C)C#N)c1 | 126 to 127
13 | CCCCOC(=O)C(=O)Nc1nc2ccccc2s1 | 137 to 138
14 | Nc1nc2c(s1)CCN(CC=Cc1cccc(Cl)c1)CC2 | 132 to 136
15 | COC(=O)Nc1ccc(C(=O)O)cc1 | 195 to 196
16 | CCCCCCCCCCCCCCOc1ccc(C(=O)OC)cc1Cl | 42 to 43
17 | CCC1C(C)=NN=C(c2ccc(OC)c(OC)c2)c2cc(OC)c(OC(C)C)cc21 (configuration not stated) | 109 to 111
18 | N#Cc1cc([N+](=O)[O-])ccc1N1CCCCC1 | 75
19 | CCCCCCC(=O)C[C@H](O)C(=O)O | 69 to 70
20 | Cn1c(C(F)(F)F)cc(=O)n(-c2cc(C=O)c(Cl)cc2Cl)c1=O | 117 to 120
21 | O=[N+]([O-])C1COc2cc3c(cc2C1c1ccccc1C1OCCCO1)OCO3 (configuration not stated) | 207
22 | Cc1nc(-c2cccc(-c3nc4sccn4c3-c3ccnc(N[C@@H]4CCCN(C(=O)OC(C)(C)C)C4)n3)c2)no1 | 110 to 112
23 | Oc1ccccc1CCC1NCCS1 (configuration not stated) | 100 to 102

Row | SMILES | melting point [°C]
24 | O=C(O)c1cn(-c2ccc(F)cc2F)c2c(F)c(F)c(F)c(F)c2c1=O | 250 to 252
25 | CCN(CC)c1c([N+](=O)[O-])cc(C(F)(F)F)c(N2CCCC2=O)c1[N+](=O)[O-] | 94 to 95
26 | CC1(C)COC(c2cc3c(O)cccc3o2)=N1 | 187 to 188
27 | O=C(O)C1CC(O)CN1C(=O)c1ccc2c(c1)OCO2 (configuration not stated) | 230
28 | CCOc1ccc(C2=NNC(=O)CC2)c(OCC)c1 | 148 to 150
29 | CC1(C)c2ccccc2C(C)(C)C1(S)CC(=O)O | 159 to 161
30 | COCCCN1CC[C@@H](CNC(=O)c2cc(Cl)cc3c2OCCO3)[C@H](O)C1 | 110
31 | CCC(=O)OCC(=O)OC1C(CC)CC2C3CCC4=CC(=O)CCC4C3CCC21C (configuration not stated) | 101 to 104
32 | Nc1ccc(S(N)(=O)=O)c2c1CCCC2 | 216 to 219
33 | CCOCCC(=Nc1ccc(Cl)cc1C(F)(F)F)n1ccnc1 | 61 to 62
34 | COc1cc(OC)c2c(=O)[nH]c(-c3ccc(OC)c(-c4ccc(C(=O)N(C)C)cc4Cl)c3)nc2c1 | > 300
35 | CNC(=O)Nc1cc(CNc2ncccc2C(=O)OC)ccn1 | 145 to 146
36 | CC(C)(Cl)C(CCNC(=O)C(F)(F)F)N=O (configuration not stated) | 91 to 93
37 | O=Cc1cccc(CF)n1 | 60
38 | Cc1c(C(F)(F)F)ncn(-c2cc([N+](=O)[O-])c(F)cc2F)c1=O | 157
39 | O=C(OCCO)c1ccc([N+](=O)[O-])cc1 | 77 to 78
40 | N#Cc1cnc2c(c1)[nH]c(=O)n2[C@H]1CC[C@H](O)CC1 | 274 to 275
41 | CCSc1nc(N)ccc1[N+](=O)[O-] | 132
42 | CCCc1c(OCCCOc2ccc(C(=O)O)cc2Br)ccc(C(C)=O)c1OC(=O)CC | 136 to 137
43 | CCCCCCCCCCCCS(=O)(=O)CCOc1ccc(CCC(=O)C(F)(F)F)cc1 | 55 to 56
44 | O=c1[nH]c2ccc3c(c2[nH]c1=O)CNCC3 | 294 to 297
45 | CCOc1nn(-c2c(Cl)cc(C(F)(F)F)cc2Cl)c(N)c1-c1cccc(C(F)(F)F)c1 | 77 to 78

Next, values leading:

Row | melting point [°C] | SMILES
46 | 305 to 306 | Nc1ccc(-c2coc3cc(O)c(O)cc3c2=O)cc1
47 | 126 to 127 | Cc1c(C)c2c(c(C)c1N)C(c1ccc(F)cc1)C(C)(C)O2 (configuration not stated)
48 | 118 to 119 | CCOC(=O)c1ccc(C(C(N)=O)C(CCc2ccccc2)c2ccccc2N2CCCCC2)cc1 (configuration not stated)
49 | 155 to 158 | CCc1nc2c(cnn2CC)c(NC2CCOCC2)c1CNC(=O)c1cccc(C(=O)NCc2ccc(F)c(-c3cccc(CN4CCN(CC)CC4)c3)c2)c1
50 | 208 | NCCc1cccc(N2C(=O)N(c3c(Cl)cccc3Cl)Cc3cnc(Nc4ccccc4)nc32)c1
51 | 191 | Nc1nc2ccccc2n1S(=O)(=O)C=Cc1ccccc1
52 | 109 to 110 | O=C(Cc1ccc(F)cc1)c1ccccc1
53 | 176 to 178 | COc1ccc(Cl)cc1C(=O)N(CCCC(=O)O)C(c1ccccc1)c1ccccc1
54 | > 270 | O=c1[nH]c2cc(S(=O)c3cccc4cnccc34)c([N+](=O)[O-])cc2s1 (configuration not stated)
55 | 148 | Cc1oc(Cc2cccc(Br)c2)c(C(=O)c2cc(C(C)C)c(OS(=O)(=O)c3ccc(C(=O)O)c(O)c3)c(C(C)C)c2)c1C
56 | 154 to 155 | CC(C)(NC(=O)CCn1ccnc1)c1ccc(Cl)cc1
57 | 116 to 117 | COc1ccc(CCNCC(O)c2ccc(OCc3ccccc3)cc2OCc2ccccc2)cc1OC (configuration not stated)
58 | 172 to 174 | O=[N+]([O-])c1cccc2cncc(Br)c12
59 | 220 to 222 | N#Cc1c(N2CCCCC2)cc(-c2ccccc2)c2c1C(=O)c1ccccc1-2
60 | 171 to 173 | Cn1nnc(-c2ccc3c(c2)c(C2=CCN(CCc4nnnn4C)CC2)cn3-c2ccc(F)cc2)n1
61 | 213 to 216 | O=C(O)N1C=NN2c3cccnc3N(c3cccc(Cl)c3)CC12 (configuration not stated)
62 | 190 to 192 | Cn1nc(C(=O)NCc2ccc(Cl)cc2)c(=O)c2cc(CN3CCOCC3)ccc21
63 | 83 to 86 | O=S(=O)(Nc1cccc(CCOCc2noc(-c3ccc(C(F)(F)F)cc3)n2)c1)C(F)(F)F
64 | 174 | COc1ccc(CN(C)CCCCc2ccc(NC(=O)c3cccc4c(=O)c5cccc([N+](=O)[O-])c5[nH]c34)cc2)cc1OC
65 | 154 to 155 | CC(=O)NCCOc1ccc2c(-c3ccccc3F)noc2c1Cl
66 | 182 to 185 | O=C(c1ccc([N+](=O)[O-])cc1)c1ccc2c(n1)C(O)CCCN2 (configuration not stated)
67 | 127 to 128 | COc1ccc2c(c1OC)CC(c1ccccc1)CC2=O (configuration not stated)
68 | 157 to 159 | O=C1Nc2cccc(-c3cccc(NC(=O)c4ccc([N+](=O)[O-])cc4)c3)c2/C1=C/c1ccc[nH]1
69 | 161 to 162 | COc1cccc(CC(=O)O)c1OCCCc1cn(-c2ccc([N+](=O)[O-])cn2)nc1C(C)C
70 | 175 | O=C(NC(Cc1ccc([N+](=O)[O-])cc1)C(=O)C(F)(F)F)c1ccccc1 (configuration not stated)
71 | 44 to 59 | O=CC(=O)c1ccc(OCCc2ccccc2)cc1

Row | melting point [°C] | SMILES
72 | 257 to 260 | O=C(O)Cc1ccc(NC(=O)c2ccccc2SSc2ccccc2C(=O)Nc2ccc(CC(=O)O)cc2)cc1
73 | 230 to 232 | NC(=O)Nc1ccc2oc([N+](=O)[O-])c(-c3ccccc3)c2c1
74 | 253 to 254 | O=c1c2c(Cc3cccc(OC(F)(F)F)c3)n[nH]c2c2cccnc2n1-c1ccccc1
75 | 146 to 147 | CC(C)(C)c1ccc(CC(=O)CCCC2CCCCC2)cc1NC(=O)CC1c2ccccc2Oc2ccccc21
76 | 251 to 252 | O=C(O)c1ccc2c(c1)NCc1ccccc1O2
77 | 296 | CC(C)(C)OC(=O)Nc1ccc2nc(-c3cccnc3)nn2c1
78 | 196 to 200 | CC=Cc1cc(-c2ccc(F)cc2)cc(C(=O)O)c1O
79 | 189 to 193 | COc1cc2nc(N3CCN(c4nc5cccccc-5n4)CC3)nc(N)c2cc1OC
80 | 29 to 30 | COC(=O)CCc1cccc(-c2ccccc2)c1
81 | 138 to 139 | CCOc1ccc2c(=O)cc(-c3ccccc3)oc2c1
82 | 39 to 40 | CN(C)CCCCCCCOc1ccc(-c2nnc(CSCCOc3ccccc3)o2)cc1
83 | 205 to 206 | CCc1cccc(CC)c1NC(=O)C(Cc1ccccc1)NC(C)=O (configuration not stated)
84 | 160 | COc1ccc(-c2cc(=S)n(Cc3ccncc3)nc2-c2ccc(OC)cc2)cc1
85 | 133 to 135 | CC(C)N(Cc1ccc(Cl)c(Cl)c1)S(=O)(=O)c1cc2ccccc2s1
86 | 155 to 156 | O=C(NCCO)c1cccc(-c2ccc3c(c2)C(Oc2ccc(Cl)cc2Cl)CC3)c1 (configuration not stated)
87 | 175 to 180 | CCCCOc1ccc2cc(C(=O)O)ccc2c1
88 | 170 to 172 | COC(=O)CC[C@H](NC(=O)c1ccc(CCn2cnc3nccc-3c2O)cc1)C(=O)OC
89 | 167 to 169 | COc1ccc(C[C@@H]2COc3ccc(OCc4ccc5ccccc5n4)cc3[C@@H]2O)cc1C(=O)O (relative stereo)
90 | 42 to 44 | Brc1cncc(-c2ccccc2)c1
91 | 231 to 238 | CC(=O)Nc1ccc(C=[N+]([O-])Cc2ccccc2)cc1
92 | 113 to 115 | N#Cc1cccc(Cc2ccccc2C=NC(c2ccccc2)c2ccccc2)c1
93 | 65 to 66 | COC(=O)Cn1c(C)cc(Sc2ccccc2)c(N)c1=O
94 | 147 to 148 | CC(c1ccccc1)N1Cc2cncn2C(c2ccc(Br)cc2)C1=O (single isomer, unassigned; (+))
95 | 97 to 100 | COc1ccc(-c2cc(=Nc3c(C)cc(C)cc3C)n(C)c(=NCc3ccccc3)n2C)cc1OC
96 | 107 to 109 | COC(=O)c1cc(OC)ccc1N(CC#N)c1ccccc1
97 | 63 to 64 | CCOC(=O)c1ccc(NCCCCCc2ccccc2)cc1
